Measurements as given in patent US10010572B2, “Composition for musculoskeletal pain” (priority 2015, dated 2018).

Tested on: chronic musculoskeletal pain
Assay: Randomized, double-blind, placebo-controlled clinical study of topical analgesics (St. Lucia), Subjective Pain Intensity Rating (SPIR)
Source text: Chronic musculoskeletal pain is relatively common in all age groups and may be the result of work-related trauma, sports-related injuries, postural events, various traumas and the natural aging process. Pharmaceutical agents including non-steroidal anti-inflammatory drugs acetaminophen, opioids and other drugs are frequently used to treat such patients. Because of the potential adverse effects associated with most of these drugs, one embodiment of the present invention, a topical analgesic, with coconut oil as a base ingredient and other natural oils, was clinically tested to determine its efficacy in the management of chronic musculoskeletal pain.
One hundred ninety six (196) patients were enrolled in the study. The patients were randomized to the 3 groups using the nQuery Advisor version 7.0 software protocol.
After obtaining permission from the Committee for the Protection of Human Subjects attached to the St. Lucia Pain Institute, the Ministry of Health in St. Lucia and the St. Lucia Medical and Dental Association Ethics Committee, a randomized, double-blind, placebo-controlled study was designed and implemented in the Caribbean island of St. Lucia. St. Lucia was chosen as the study site for a number of reasons: that population is relatively opioid-naive; chronic musculoskeletal pain is quite common, and most patients tend to use and in some cases, prefer to use topical analgesics for musculoskeletal pain management instead of oral or other parenteral medications. Moreover, the Principal Investigator (inventor of the present invention) lives in St. Lucia for part of the year. One hundred and ninety-six (196) patients were enrolled in the study and were subsequently randomized to a pre-determined computerized protocol. […] The Diclofenac ointment was dispensed in a label-less tube.
All patients were initially evaluated by the Principal Investigator and another investigator after triage screening by the Study Coordinator. At that screening, the patients were assessed using the inclusionary and exclusionary criteria. […] Patients were recruited via television, radio and newspaper announcements, and interviews announcing the study. […] This study was supported and funded by three St. Lucian Financial Institutions.
Subjective Pain Intensity Rating (SPIR) was determined on each patient using a scale of 0 (no pain) to 10 (the maximum possible pain, e.g. immersion of the hand in boiling water). That raw score was multiplied by 10 to obtain a percentage score. […] After successful enrollment, patients were randomized to one of the 3 groups. Patients were dispensed with 5 ounces of one of the 3 medications and were instructed to apply the medication twice daily for 2 weeks.
All patients were contacted by the Study Coordinator after 2 weeks and pain score (as described above), satisfaction with the drug, satisfaction with the overall study and the presence of adverse effects were determined. Then, 2 weeks later (4 weeks after study commencement), patients were asked to return to the study office (St. Lucia Pain Institute office) for follow-up clinical evaluation and determination of pain score, adverse effects and related data similar to what was obtained at 2 weeks.

patients who developed superficial skin rashes (receded without therapy when the drug was discontinued): Four
Structure (SMILES): O=C(O)Cc1ccccc1Nc1c(Cl)cccc1Cl [Diclofenac]
Median pain score at 3 months (100 point scale, 3 month post-study telephone interview): 25%
Median change in pain from baseline to 3 months (decrease) (100 point scale, decrease, not statistically significant among groups): 30%
patients with progressive radicular pain and paresthesiae (major adverse effect) (after 5 days, subsided on discontinuation, reappeared on re-introduction, study discontinued in that patient after 8 days): One
change in SPIR pain score from baseline to 2 weeks (patients with chronic axial musculoskeletal pain, topical twice daily, baseline to 2 weeks, all p<0.0001): corresponding decreases in pain scores
change in SPIR pain score from baseline to 4 weeks (patients with chronic axial musculoskeletal pain, topical twice daily, baseline to 4 weeks, all p<0.0001): corresponding decreases in pain scores
